# Experiments:
# [1] = target: T1, oxytocin receptors (Rattus norvegicus, UniProt P70536); test: Oxytocin Receptor Binding; details: for IC50: 1.0 nM [3H]oxytocin
# T1 construct: The uteri are dissected out, cleaned of fat and connective tissues; from tissue; host or cells: uterus of DES-treated female Sprague-Dawley rats
# T1 sequence (P70536 1-388): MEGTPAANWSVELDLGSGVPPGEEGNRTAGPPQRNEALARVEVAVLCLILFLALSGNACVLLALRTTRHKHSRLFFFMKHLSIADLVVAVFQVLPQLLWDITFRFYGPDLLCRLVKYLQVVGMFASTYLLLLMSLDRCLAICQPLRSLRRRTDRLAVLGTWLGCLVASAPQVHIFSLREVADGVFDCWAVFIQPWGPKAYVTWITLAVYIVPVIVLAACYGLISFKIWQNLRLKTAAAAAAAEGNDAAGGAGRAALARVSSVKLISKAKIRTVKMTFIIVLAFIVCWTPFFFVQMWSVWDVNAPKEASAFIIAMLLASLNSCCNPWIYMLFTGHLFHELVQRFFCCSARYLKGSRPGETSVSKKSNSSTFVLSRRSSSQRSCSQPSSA
# Outline: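 Membranes from uteri of DES-primed (0.3 mg/kg i.m., 18 h) female Sprague-Dawley rats. Competition with 1.0 nM [3H]oxytocin in 50 mM Tris.HCl pH 7.4, 5 mM MgCl2 with protease inhibitors, 60 min at 22 °C, filtration read-out. Non-specific binding with 1.0 uM unlabeled OT; IC50 calculated.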
# [2] = tested on: Vasopressin V1; test: Vasopressin V1 Antagonist Activity in Conscious Rats (vasopressin vasopressor response); type: in vivo, rat; parameters: Average Change: unit not given here; details: for % Inhibition / Average Change: SHR
# Outline: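 Conscious rats are restrained supine, and under local 2% procaine a PE 10/20 cannula is passed through the ventral caudal tail artery into the lower abdominal aorta. The caudal vein is cannulated for intravenous dosing. Blood pressure is recorded with a Statham P23Db transducer, and vasopressin injections are repeated after compound dosing. Percent antagonism is calculated against the pre-drug vasopressor response taken as 100%.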
# [3] = tested on: Vasopressin V2; test: Vasopressin V2 Antagonist Activity in Conscious Hydrated Rats; type: in vivo, rat; details: AVP 0.4 μg/kg i.p.
# Outline: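 Four-hour urine output, osmolality and electrolytes (Na+, K+, Cl−) recorded in water-loaded rats (30 mL/kg deionized water orally) given AVP i.p. at 0.4 μg/kg. Test compounds were given orally at 0.1–100 mg/kg 1 h before AVP; 2–4 rats per compound.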
# [4] = 10 mg/kg i.v., VAS 0.01 i.u./kg, 30 min
# [5] = 10 mg/kg i.v., VAS 0.01 i.u./kg, 60 min
# [6] = 10 mg/kg i.v., VAS 0.01 i.u./kg, 90 min
# [7] = 10 mg/kg i.v., VAS 0.01 i.u./kg, 120 min
# [8] = 10 mg/kg i.v., VAS 0.01 i.u./kg, 180 min
# [9] = 10 mg/kg i.v., VAS 0.01 i.u./kg, 240 min
# [10] = 10 mg/kg i.v., VAS 0.01 i.u./kg, 300 min
# [11] = 10 mg/kg i.v., VAS 0.02 i.u./kg, 30 min
# [12] = 10 mg/kg i.v., VAS 0.02 i.u./kg, 60 min
# [13] = 10 mg/kg i.v., VAS 0.02 i.u./kg, 90 min
# [14] = 10 mg/kg i.v., VAS 0.02 i.u./kg, 120 min
# [15] = 10 mg/kg i.v., VAS 0.02 i.u./kg, 180 min
# [16] = 10 mg/kg i.v., VAS 0.02 i.u./kg, 240 min
# [17] = 10 mg/kg i.v., VAS 0.02 i.u./kg, 300 min
compound,measurement,setting,value
"O=C(Nc1ccc(C(=O)N2Cc3cccn3Cc3ccccc32)cc1)c1c(Cl)cccc1Cl [Example 469, N-[4-(5H-pyrrolo[2,1-c][1,4]benzodiazepin-10(11H)-ylcarbonyl)phenyl]-2,6-dichlorobenzamide]",IC50,[1],0.265 µM
same,inhibition at 10 µM,[1]; [3H]oxytocin,96%
same,Max. % Inhibition,[2]; 10 mg/kg i.v.,69%
same,Time (of max. % inhibition),[2]; 10 mg/kg i.v.,30 min
same,Osmolality,[3]; 10 mg/kg orally,548 mOsm/kg
same,Urine Volume,[3]; 10 mg/kg orally,11.3 ml/4 hrs
"COc1cc(C(=O)N2Cc3cccn3Cc3ccccc32)ccc1NC(=O)c1ccc(Cl)cc1Cl [Example 478, N-[4-(5H-pyrrolo[2,1-c][1,4]benzodiazepin-10(11H)-ylcarbonyl)-2-methoxy-phenyl]-2,4-dichlorobenzamide]",IC50,[1],0.04 µM
same,inhibition at 1.25 µM,"[1]; dose 1.25 μM, [3H]oxytocin",97%
same,Max. % Inhibition,[2]; 10 mg/kg i.v.,76%
same,Time (of max. % inhibition),[2]; 10 mg/kg i.v.,120 min
same,Osmolality,[3]; 10 mg/kg orally,1399 mOsm/kg
same,Urine Volume,[3]; 10 mg/kg orally,3 ml/4 hrs
"CC(=O)OC(C(=O)Nc1ccc(C(=O)N2Cc3cccn3Cc3ccccc32)cc1)c1ccccc1 (stereo not drawn) [Example 587, α-(Acetyloxy)-N-[4-(5H-pyrrolo[2,1-c][1,4]benzodiazepin-10(11H)-ylcarbonyl)phenyl]benzeneacetamide]",IC50,[1],8 µM
same,inhibition at 10 µM,[1]; [3H]oxytocin,56%
same,Max. % Inhibition,[2]; 10 mg/kg i.v.,75%
same,Time (of max. % inhibition),[2]; 10 mg/kg i.v.,60 min
same,Osmolality,[3]; 10 mg/kg orally,868 mOsm/kg
same,Urine Volume,[3]; 10 mg/kg orally,9 ml/4 hrs
"O=C(Nc1ccc(C(=O)N2Cc3cccn3Cc3ccccc32)cc1)c1ccc(Cl)cc1Cl [Example 6, N-[4-(5H-pyrrolo[2,1-c][1,4]benzodiazepin-10(11H)-ylcarbonyl)phenyl]-2,4-dichlorobenzamide]",IC50,[1],0.35 µM
same,inhibition at 10 µM,[1]; [3H]oxytocin,92%
same,% Inhibition,[2]; [4],85%
same,Average Change,[2]; [4],5.5
same,% Inhibition,[2]; [5],79%
same,Average Change,[2]; [5],7.5
same,% Inhibition,[2]; [6],63%
same,Average Change,[2]; [6],13.5
same,% Inhibition,[2]; [7],59%
same,Average Change,[2]; [7],15
same,% Inhibition,[2]; [8],44%
same,Average Change,[2]; [8],20.5
same,% Inhibition,[2]; [9],34%
same,Average Change,[2]; [9],24
same,% Inhibition,[2]; [10],30%
same,Average Change,[2]; [10],25.5
same,% Inhibition,[2]; [11],62%
same,Average Change,[2]; [11],16
same,% Inhibition,[2]; [12],45%
same,Average Change,[2]; [12],23
same,% Inhibition,[2]; [13],36%
same,Average Change,[2]; [13],27
same,% Inhibition,[2]; [14],30%
same,Average Change,[2]; [14],29.5
same,% Inhibition,[2]; [15],17%
same,Average Change,[2]; [15],35
same,% Inhibition,[2]; [16],15%
same,Average Change,[2]; [16],35.5
same,% Inhibition,[2]; [17],14%
same,Average Change,[2]; [17],36
same,Osmolality,[3]; 1 mg/kg orally,970 mOsm/kg
same,Urine Volume,[3]; 1 mg/kg orally,6 ml/4 hrs
same,Osmolality,[3]; 3 mg/kg orally,519 ± 30 mOsm/kg
same,Urine Volume,[3]; 3 mg/kg orally,15 ± 1.6 ml/4 hrs
same,Osmolality,[3]; 10 mg/kg orally,346 ± 25 mOsm/kg
same,Urine Volume,[3]; 10 mg/kg orally,20.4 ± 1.1 ml/4 hrs
same,Osmolality,[3]; 30 mg/kg orally,616 ± 87 mOsm/kg
same,Urine Volume,[3]; 30 mg/kg orally,17.9 ± 1.3 ml/4 hrs
COC(=O)c1ccc(C(=O)Nc2ccc(C(=O)N3Cc4cccn4Cc4ccccc43)cc2)cc1 [Example 489],inhibition at 10 µM,[1]; [3H]oxytocin,44%
same,Max. % Inhibition,[2]; 30 mg/kg i.v.,39%
same,Time (of max. % inhibition),[2]; 30 mg/kg i.v.,120 min
same,Osmolality,[3]; 10 mg/kg orally,1194 mOsm/kg
same,Urine Volume,[3]; 10 mg/kg orally,6.1 ml/4 hrs
"Cc1ccc(F)cc1C(=O)Nc1ccc(C(=O)N2Cc3cccn3Cc3ccccc32)c(Cl)c1 [Example 482, N-[4-(5H-pyrrolo[2,1-c][1,4]benzodiazepin-10(11H)-ylcarbony)-3-chlorophenyl]-5-fluoro-2-methylbenzamide]",IC50,[1],0.126 µM
same,inhibition at 10 µM,[1]; [3H]oxytocin,97%
same,Max. % Inhibition,[2]; 10 mg/kg i.v.,40%
same,Time (of max. % inhibition),[2]; 10 mg/kg i.v.,60 min
same,Osmolality,[3]; 10 mg/kg orally,372 ± 17 mOsm/kg
same,Urine Volume,[3]; 10 mg/kg orally,22 ± 0.9 ml/4 hrs
"O=C(Nc1ccc(C(=O)N2Cc3cccn3Cc3ccccc32)c(Cl)c1)c1ccccc1C(F)(F)F [Example 528, N-[4-(5H-pyrrolo[2,1-c][1,4]benzodiazepin-10(11H)-ylcarbonyl]-3-chlorophenyl]-2-(trifluoromethyl)benzamide]",IC50,[1],1.17 µM
same,inhibition at 10 µM,[1]; [3H]oxytocin,90%
same,Max. % Inhibition,[2]; 30 mg/kg i.v.,66%
same,Time (of max. % inhibition),[2]; 30 mg/kg i.v.,300 min
same,Osmolality,[3]; 10 mg/kg orally,647 mOsm/kg
same,Urine Volume,[3]; 10 mg/kg orally,11.3 ml/4 hrs
Cc1ccccc1C(=O)Nc1ccc(C(=O)N2Cc3cccn3Cc3ccccc32)c(Cl)c1 [Example 470],IC50,[1],0.22 µM
same,inhibition at 2.5 µM,"[1]; dose 2.5 μM, [3H]oxytocin",92%
same,Max. % Inhibition,[2]; 10 mg/kg i.v.,87%
same,Time (of max. % inhibition),[2]; 10 mg/kg i.v.,180 min
same,Max. % Inhibition,[2]; 30 mg/kg p.o.,69%
same,Time (of max. % inhibition),[2]; 30 mg/kg p.o.,180 min
same,Osmolality,[3]; 10 mg/kg orally,387 mOsm/kg
same,Urine Volume,[3]; 10 mg/kg orally,17 ml/4 hrs
"O=C(Nc1ccc(C(=O)N2Cc3cccn3Cc3ccccc32)cc1)c1cccc(C(F)(F)F)c1 [Example 474, N-[4-(5H-pyrrolo[2,1-c][1,4]benzodiazepin-10(11H)-ylcarbonyl)phenyl]-3-(trifluoromethyl)benzamide]",inhibition at 10 µM,[1]; [3H]oxytocin,18%
same,Max. % Inhibition,[2]; 30 mg/kg i.v.,80%
same,Time (of max. % inhibition),[2]; 30 mg/kg i.v.,60 min
same,Osmolality,[3]; 10 mg/kg orally,619 mOsm/kg
same,Urine Volume,[3]; 10 mg/kg orally,11.5 ml/4 hrs
"O=C(Nc1ccc(C(=O)N2Cc3cccn3Cc3ccccc32)cc1)c1sccc1Cl [Example 476, N-[4-(5H-pyrrolo[2,1-c][1,4]benzodiazepin-10(11H)-ylcarbonyl)phenyl]-3-chlorothiophene-2-carboxamide]",IC50,[1],0.82 µM
same,inhibition at 10 µM,[1]; [3H]oxytocin,94%
same,Max. % Inhibition,[2]; 10 mg/kg i.v.,78%
same,Time (of max. % inhibition),[2]; 10 mg/kg i.v.,30 min
same,Max. % Inhibition,[2]; 30 mg/kg p.o.,19%
same,Time (of max. % inhibition),[2]; 30 mg/kg p.o.,180 min
same,Osmolality,[3]; 10 mg/kg orally,1233 mOsm/kg
same,Urine Volume,[3]; 10 mg/kg orally,5 ml/4 hrs
O=C(Nc1ccc(C(=O)N2Cc3cccn3Cc3ccccc32)c(Cl)c1)c1ccc(Cl)cc1Cl [Example 471],IC50,[1],0.35 µM
same,inhibition at 10 µM,[1]; [3H]oxytocin,99%
same,Max. % Inhibition,[2]; 30 mg/kg i.v.,85%
same,Time (of max. % inhibition),[2]; 30 mg/kg i.v.,90 min
same,Osmolality,[3]; 10 mg/kg orally,507 ± 38 mOsm/kg
same,Urine Volume,[3]; 10 mg/kg orally,14.1 ± 1.9 ml/4 hrs
"O=C(Nc1ccc(C(=O)N2Cc3cccn3Cc3ccccc32)cc1)c1cc([N+](=O)[O-])ccc1Cl [Example 480, N-[4-(5H-pyrrolo[2,1-c][1,4]benzodiazepin-10(11H)-ylcarbonyl)phenyl]-2-chloro-5-nitrobenzamide]",IC50,[1],0.15 µM
same,inhibition at 10 µM,[1]; [3H]oxytocin,98%
same,Max. % Inhibition,[2]; 10 mg/kg i.v.,29%
same,Time (of max. % inhibition),[2]; 10 mg/kg i.v.,300 min
same,Osmolality,[3]; 10 mg/kg orally,827 mOsm/kg
same,Urine Volume,[3]; 10 mg/kg orally,8.8 ml/4 hrs

# Source: patent US5624923A, “Tricyclic diazepine vasopressin antagonists and oxytocin antagonists” (priority 1995, dated 1997)
